# Where no end group is shown, it is not given here. [ ]: non-standard residue; d: D form.
# Test system: S. aureus
# Test: LIVE/DEAD assay of bacterial membrane integrity
# Format: cell-based, Staphylococcus aureus
# Details: SYTO 9 / propidium iodide stain
# From the text: Assessing the antibacterial activity of GL13K-loaded MSNs against Staphylococcus aureus (USA300, MRSA strain). Overnight culture of S. aureus, USA300 prepared in tryptic soy broth (TSB, DF0370-17-3, Fisher Scientific) were used for assessing the antibacterial activity of AMP-loaded MSNs. USA300 is one of the primary causatives of implant associated infection and implant failure. The optical density of the overnight culture was adjusted to 0.05 and treated with different concentrations of AMP-loaded MSN and AMP alone and MSN (without AMP) and PBS (vehicle control) was used as positive and negative controls. The bacteria was cultured for 24 h under different conditions and metabolic activity tested using BacTiter-Glo™ microbial cell viability assay. The assay was performed using manufacturer's instruction and metabolic activity was measured by luminescence which was measured using microplate reader (Synergy HT, Biotek). […] FIGS. 7A-7C show metabolic activity of USA300 cultured in presence of AMP-loaded MSNs, MSN alone and AMP added directly to the bacterial suspension. Values on x-axis correspond to the loaded AMP concentration.
# Overnight culture of S. aureus was treated the same was using method discussed for FIGS. 7A-7C. A LIVE/DEAD assay was performed to visualize cell colonization of surfaces and membrane integrity of all experimental groups. […]
substance,measurement,value
D-GL13K (G[dK][dI][dI][dK][dL][dK][dA][dS][dL][dK][dL][dL]) [AMP],membrane-compromised bacteria (antibacterial capability),significant membrane-compromised bacteria

# Reference: patent publication US20220105234A1, “ADHESIVE FOR OSSEOINTEGRATED PERCUTANEOUS DEVICES” (Regents of the University of Minnesota, priority 2020, published 2022)
